Where “and” joins values, the source holds several entries; their conditions need not be identical. Identical values can stand only once. Like-named read-outs stand apart in the source and are kept apart here.
Key:
Assay in all cases: SelectScreen kinase assay
LYN B = LYN B (Homo sapiens, UniProt P07948); settings: for Inhibition at 1 µM (%): LYN B, ZLYTE, ATP Km app
Procedure: (§1) Selectivity profiling assays were performed by the Invitrogen SelectScreen™ Services. […] The concentration of ATP was selected to be equal to the KM, unless indicated otherwise.

NEK7 = NEK7 (Homo sapiens, UniProt Q8TDX7)
Procedure: as §1

LATS2 = molecular target: T1, LATS2 (Homo sapiens, UniProt Q9NRM7); settings: for Inhibition at 1 µM (%): LATS2, LanthaScreen Binding
T1 sequence (Q9NRM7 1-1088): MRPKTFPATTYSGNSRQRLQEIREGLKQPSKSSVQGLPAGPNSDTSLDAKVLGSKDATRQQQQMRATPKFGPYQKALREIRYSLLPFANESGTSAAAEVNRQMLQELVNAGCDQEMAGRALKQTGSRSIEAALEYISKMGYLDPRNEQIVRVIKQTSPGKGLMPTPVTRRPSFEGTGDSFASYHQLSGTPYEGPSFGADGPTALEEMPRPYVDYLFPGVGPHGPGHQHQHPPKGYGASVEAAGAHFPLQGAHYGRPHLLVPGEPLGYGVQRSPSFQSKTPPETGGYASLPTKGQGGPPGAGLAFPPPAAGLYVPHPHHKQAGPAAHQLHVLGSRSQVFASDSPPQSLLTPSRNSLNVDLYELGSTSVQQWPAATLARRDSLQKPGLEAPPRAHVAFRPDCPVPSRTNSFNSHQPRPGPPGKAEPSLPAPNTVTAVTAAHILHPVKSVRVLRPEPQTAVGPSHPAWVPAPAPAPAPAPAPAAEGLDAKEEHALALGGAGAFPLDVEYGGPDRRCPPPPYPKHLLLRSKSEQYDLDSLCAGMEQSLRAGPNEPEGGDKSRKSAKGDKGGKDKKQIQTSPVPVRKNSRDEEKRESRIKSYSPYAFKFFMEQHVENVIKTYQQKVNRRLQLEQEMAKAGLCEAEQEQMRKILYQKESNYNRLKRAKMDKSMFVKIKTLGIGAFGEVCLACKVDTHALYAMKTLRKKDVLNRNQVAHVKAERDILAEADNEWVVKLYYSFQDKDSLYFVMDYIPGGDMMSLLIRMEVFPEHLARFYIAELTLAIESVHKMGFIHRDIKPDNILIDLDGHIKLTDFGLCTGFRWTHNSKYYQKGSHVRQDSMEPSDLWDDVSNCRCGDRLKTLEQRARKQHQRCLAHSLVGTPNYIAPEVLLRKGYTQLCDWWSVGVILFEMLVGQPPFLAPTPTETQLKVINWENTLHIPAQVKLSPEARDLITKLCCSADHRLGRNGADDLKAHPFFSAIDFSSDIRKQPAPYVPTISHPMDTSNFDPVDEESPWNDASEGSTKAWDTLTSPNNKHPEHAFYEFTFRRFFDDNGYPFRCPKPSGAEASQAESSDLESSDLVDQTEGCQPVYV
Procedure: as §1

CHEK1 (CHK1) = CHEK1 (CHK1) (Homo sapiens, UniProt O14757); settings: 1 μM WEL028, 1 h preincubation
CHEK1 (CHK1), sequence (O14757 whole entry): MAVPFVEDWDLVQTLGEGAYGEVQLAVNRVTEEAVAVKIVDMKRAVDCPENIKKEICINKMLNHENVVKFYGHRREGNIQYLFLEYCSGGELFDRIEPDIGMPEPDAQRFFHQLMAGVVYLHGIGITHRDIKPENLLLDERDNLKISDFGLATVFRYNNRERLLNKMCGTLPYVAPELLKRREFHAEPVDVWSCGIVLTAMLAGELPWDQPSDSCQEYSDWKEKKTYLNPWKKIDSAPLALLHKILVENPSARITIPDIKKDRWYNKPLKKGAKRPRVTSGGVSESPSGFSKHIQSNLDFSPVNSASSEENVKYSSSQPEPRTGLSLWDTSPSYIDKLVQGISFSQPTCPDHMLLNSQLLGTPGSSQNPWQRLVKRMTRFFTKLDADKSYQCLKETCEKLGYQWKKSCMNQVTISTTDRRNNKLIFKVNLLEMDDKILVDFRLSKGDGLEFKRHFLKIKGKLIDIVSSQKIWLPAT
Procedure: as §1

STK39 (STLK3) = STK39 (STLK3) (Homo sapiens, UniProt Q9UEW8)
Procedure: as §1

MAPK12 (p38 gamma) = molecular target: T2, MAPK12 (p38 gamma) (Homo sapiens, UniProt P53778)
T2 sequence (P53778 1-367): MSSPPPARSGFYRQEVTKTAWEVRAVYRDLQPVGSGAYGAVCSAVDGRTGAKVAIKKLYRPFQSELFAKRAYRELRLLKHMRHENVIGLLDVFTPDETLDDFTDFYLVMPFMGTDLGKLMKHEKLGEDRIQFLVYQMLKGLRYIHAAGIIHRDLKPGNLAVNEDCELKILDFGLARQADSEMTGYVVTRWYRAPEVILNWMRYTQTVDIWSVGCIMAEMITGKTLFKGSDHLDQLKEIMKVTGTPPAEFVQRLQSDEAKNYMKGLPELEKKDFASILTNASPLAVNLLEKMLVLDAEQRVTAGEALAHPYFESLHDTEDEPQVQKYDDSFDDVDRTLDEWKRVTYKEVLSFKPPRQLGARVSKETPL
Procedure: as §1

MATK (HYL) = MATK (HYL) (Homo sapiens, UniProt P42679)
MATK (HYL), sequence (P42679 whole entry): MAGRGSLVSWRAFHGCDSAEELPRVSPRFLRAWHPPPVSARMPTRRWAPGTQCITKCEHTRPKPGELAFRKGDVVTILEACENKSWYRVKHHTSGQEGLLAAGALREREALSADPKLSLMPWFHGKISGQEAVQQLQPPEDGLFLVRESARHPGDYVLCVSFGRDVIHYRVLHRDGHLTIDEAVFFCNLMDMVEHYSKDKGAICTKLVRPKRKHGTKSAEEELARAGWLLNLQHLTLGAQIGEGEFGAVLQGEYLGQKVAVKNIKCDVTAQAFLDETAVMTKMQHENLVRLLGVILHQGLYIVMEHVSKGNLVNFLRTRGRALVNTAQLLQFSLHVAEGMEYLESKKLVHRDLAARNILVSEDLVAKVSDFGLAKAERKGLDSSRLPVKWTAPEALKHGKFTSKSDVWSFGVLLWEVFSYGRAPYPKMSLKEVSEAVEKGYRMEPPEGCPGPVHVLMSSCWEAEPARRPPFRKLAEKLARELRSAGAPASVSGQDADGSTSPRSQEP
Procedure: as §1

PRKCH (PKC eta) = PRKCH (PKC eta) (Homo sapiens, UniProt P24723); settings: 1 h, 1 μM WEL028, 1 h preincubation
PRKCH (PKC eta), sequence (P24723 whole entry): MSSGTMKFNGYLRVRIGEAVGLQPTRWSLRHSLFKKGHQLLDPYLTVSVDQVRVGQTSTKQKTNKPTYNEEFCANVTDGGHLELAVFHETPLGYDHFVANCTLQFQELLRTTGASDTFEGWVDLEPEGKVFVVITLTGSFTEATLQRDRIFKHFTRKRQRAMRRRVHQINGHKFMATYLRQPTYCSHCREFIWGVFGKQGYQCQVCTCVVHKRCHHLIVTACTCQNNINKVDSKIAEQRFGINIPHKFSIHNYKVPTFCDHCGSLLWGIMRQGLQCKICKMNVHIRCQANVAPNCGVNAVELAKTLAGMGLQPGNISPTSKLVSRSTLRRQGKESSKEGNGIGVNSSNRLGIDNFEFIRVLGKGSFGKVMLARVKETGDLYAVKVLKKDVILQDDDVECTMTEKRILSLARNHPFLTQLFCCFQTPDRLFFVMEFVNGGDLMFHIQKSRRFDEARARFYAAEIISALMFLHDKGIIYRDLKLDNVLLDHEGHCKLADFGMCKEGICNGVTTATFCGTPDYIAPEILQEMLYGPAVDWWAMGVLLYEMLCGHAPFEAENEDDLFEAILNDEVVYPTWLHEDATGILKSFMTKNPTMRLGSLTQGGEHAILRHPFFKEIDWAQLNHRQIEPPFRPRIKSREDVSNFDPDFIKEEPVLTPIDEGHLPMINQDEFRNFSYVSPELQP
Procedure: as §1

MAPK10 (JNK3) = MAPK10 (JNK3) (Homo sapiens, UniProt P53779)
MAPK10 (JNK3), sequence (P53779 whole entry): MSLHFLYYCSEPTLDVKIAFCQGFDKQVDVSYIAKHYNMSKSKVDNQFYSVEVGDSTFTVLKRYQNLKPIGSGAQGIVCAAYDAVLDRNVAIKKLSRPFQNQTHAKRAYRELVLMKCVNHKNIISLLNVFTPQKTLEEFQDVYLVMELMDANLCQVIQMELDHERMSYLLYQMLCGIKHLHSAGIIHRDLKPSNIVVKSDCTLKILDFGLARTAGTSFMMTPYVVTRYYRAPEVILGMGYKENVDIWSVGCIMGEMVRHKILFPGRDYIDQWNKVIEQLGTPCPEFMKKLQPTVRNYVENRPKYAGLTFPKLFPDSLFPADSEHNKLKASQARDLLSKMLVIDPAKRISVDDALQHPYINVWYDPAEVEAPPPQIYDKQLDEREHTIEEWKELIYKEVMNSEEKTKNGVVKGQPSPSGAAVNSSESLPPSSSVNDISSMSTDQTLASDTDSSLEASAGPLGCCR
Procedure: as §1

MAPK9 (JNK2) = MAPK9 (JNK2) (Homo sapiens, UniProt P45984)
MAPK9 (JNK2), sequence (P45984 whole entry): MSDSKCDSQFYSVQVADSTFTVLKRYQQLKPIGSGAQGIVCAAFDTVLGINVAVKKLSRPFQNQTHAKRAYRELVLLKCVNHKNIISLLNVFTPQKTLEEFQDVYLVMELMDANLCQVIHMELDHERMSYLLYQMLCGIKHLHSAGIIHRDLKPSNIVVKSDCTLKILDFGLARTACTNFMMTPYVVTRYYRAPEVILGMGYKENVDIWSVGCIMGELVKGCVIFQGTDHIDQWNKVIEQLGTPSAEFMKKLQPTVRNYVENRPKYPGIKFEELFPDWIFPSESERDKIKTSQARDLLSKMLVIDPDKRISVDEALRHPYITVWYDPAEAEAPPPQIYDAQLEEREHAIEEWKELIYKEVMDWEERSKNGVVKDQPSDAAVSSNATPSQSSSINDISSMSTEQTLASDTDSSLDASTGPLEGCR
Procedure: as §1

EPHA5 = EPHA5 (Homo sapiens, UniProt P54756)
EPHA5, sequence (P54756 25-1037): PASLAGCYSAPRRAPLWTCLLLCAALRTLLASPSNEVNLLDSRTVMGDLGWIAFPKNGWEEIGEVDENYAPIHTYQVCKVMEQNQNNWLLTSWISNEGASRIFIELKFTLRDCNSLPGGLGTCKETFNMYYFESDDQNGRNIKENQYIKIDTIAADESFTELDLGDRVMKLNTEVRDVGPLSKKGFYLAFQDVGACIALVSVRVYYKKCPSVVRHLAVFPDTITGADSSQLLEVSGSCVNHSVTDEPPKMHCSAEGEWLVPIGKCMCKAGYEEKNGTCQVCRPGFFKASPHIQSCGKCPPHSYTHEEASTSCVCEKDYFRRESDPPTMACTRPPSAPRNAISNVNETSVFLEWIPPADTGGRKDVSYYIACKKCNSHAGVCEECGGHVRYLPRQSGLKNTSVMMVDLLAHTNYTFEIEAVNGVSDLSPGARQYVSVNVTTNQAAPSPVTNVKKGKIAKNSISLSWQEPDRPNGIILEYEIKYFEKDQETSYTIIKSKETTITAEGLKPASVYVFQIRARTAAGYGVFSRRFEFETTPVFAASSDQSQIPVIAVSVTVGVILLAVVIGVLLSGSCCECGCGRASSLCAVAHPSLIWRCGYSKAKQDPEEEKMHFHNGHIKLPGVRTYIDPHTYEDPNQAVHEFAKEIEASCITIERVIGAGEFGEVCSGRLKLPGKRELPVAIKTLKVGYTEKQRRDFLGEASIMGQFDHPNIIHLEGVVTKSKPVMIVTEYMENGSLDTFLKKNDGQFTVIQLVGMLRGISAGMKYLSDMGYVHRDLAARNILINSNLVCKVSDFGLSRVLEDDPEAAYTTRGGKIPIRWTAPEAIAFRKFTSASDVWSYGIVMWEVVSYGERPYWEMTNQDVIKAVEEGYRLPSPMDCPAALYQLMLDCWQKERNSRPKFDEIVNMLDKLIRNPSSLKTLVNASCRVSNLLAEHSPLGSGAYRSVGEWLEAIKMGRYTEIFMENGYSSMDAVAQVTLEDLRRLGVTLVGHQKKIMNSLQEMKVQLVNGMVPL
Procedure: as §1

STK22B (TSSK2) = molecular target: T3, STK22B (TSSK2) (Homo sapiens, UniProt Q96PF2)
T3 sequence (Q96PF2 1-358): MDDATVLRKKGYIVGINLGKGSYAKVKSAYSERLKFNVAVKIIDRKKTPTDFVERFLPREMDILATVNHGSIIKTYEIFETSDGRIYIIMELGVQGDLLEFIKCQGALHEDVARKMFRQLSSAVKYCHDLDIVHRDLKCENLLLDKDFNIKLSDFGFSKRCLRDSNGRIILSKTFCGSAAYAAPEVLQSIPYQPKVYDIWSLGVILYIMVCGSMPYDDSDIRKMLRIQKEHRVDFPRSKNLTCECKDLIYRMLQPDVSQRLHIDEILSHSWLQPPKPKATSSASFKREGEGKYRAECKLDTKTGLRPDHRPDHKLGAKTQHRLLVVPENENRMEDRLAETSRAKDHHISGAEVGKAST
Procedure: as §1

[1] = 1 h, 1 μM WEL028, 1 h preincubation

LYN B, sequence (P07948 1-491 isoform P07948-2): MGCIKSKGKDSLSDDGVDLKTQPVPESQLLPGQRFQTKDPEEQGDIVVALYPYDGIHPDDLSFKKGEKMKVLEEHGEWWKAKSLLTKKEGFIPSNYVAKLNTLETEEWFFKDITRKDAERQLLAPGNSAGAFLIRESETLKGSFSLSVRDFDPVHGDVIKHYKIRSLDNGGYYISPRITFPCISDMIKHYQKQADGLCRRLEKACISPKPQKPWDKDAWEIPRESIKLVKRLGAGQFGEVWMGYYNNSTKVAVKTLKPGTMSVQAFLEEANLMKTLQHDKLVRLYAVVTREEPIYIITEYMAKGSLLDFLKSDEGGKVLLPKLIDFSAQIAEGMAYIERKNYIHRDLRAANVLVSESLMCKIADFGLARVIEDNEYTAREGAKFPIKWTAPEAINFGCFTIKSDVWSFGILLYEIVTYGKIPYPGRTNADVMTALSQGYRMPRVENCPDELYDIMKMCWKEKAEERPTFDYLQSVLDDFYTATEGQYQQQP
NEK7, sequence (Q8TDX7 whole entry): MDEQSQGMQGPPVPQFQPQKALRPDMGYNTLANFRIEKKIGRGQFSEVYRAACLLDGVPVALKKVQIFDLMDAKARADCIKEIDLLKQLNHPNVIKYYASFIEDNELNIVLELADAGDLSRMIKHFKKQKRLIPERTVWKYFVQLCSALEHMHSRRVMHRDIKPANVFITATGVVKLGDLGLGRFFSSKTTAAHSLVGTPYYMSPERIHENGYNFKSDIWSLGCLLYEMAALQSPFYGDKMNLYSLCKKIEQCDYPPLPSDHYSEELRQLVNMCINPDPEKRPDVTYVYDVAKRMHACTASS

SMILES: C#CCOc1ccc(Nc2ncc(Cl)c(Nc3ccccc3NC(=O)C=C)n2)c(OC)c1 [Compound 6]
- inhibition at 1 µM (LYN B; [1]): 1%
- Inhibition at 1 µM (%) (LYN B): 3%
- Inhibition at 1 µM (%) (LYN B; listed as WEL028, 1 µM): 0%
- inhibition at 1 µM (NEK7; [1]): -3%
- Inhibition at 1 µM (%) (NEK7; NEK7, 1 µM, ZLYTE, ATP Km app, listed as WEL028, 1 µM): -2%
- Inhibition (%) (LATS2; 1 μM WEL028, 1 h preincubation): 2%
- Inhibition at 1 µM (%) (LATS2): 3%
- Inhibition at 1 µM (%) (LATS2; listed as WEL028, 1 µM): 0%
- Inhibition (%) (CHEK1 (CHK1)): 0%
- Inhibition at 1 µM (%) (STK39 (STLK3); 1 µM, LanthaScreen Binding, listed as WEL028, 1 µM): 6%
- inhibition at 1 µM (STK39 (STLK3); [1]): 8%
- inhibition at 1 µM (STK39 (STLK3); read-out: Inhibition at 1 µM (%), 1 µM, LanthaScreen Binding): 11%
- inhibition at 1 µM (MAPK12 (p38 gamma); [1]): 10%
- Inhibition at 1 µM (%) (MAPK12 (p38 gamma); MAPK12 (p38 gamma), 1 µM, ZLYTE, ATP Km app, listed as WEL028, 1 µM): 7%
- inhibition at 1 µM (MAPK12 (p38 gamma); read-out: Inhibition at 1 µM (%), MAPK12 (p38 gamma), 1 µM, ZLYTE, ATP Km app): 12%
- inhibition at 1 µM (MATK (HYL); 1 h): 8%
- inhibition at 1 µM (MATK (HYL); read-out: Inhibition at 1 µM (%)): 8%
- inhibition at 1 µM (PRKCH (PKC eta)): -4%
- Inhibition (%) (MAPK10 (JNK3); 1 μM WEL028, 1 h preincubation): -7%
- Inhibition at 1 µM (%) (MAPK10 (JNK3); MAPK10 (JNK3), 1 µM, ZLYTE, ATP 100): -14%
- Inhibition (%) (MAPK9 (JNK2); 1 μM WEL028, 1 h preincubation): 2%
- Inhibition at 1 µM (%) (MAPK9 (JNK2); MAPK9 (JNK2), 1 µM, ZLYTE, ATP 100, listed as WEL028, 1 µM): -1% and 5%
- Inhibition (%) (EPHA5; 1 μM WEL028, 1 h preincubation): 0%
- Inhibition at 1 µM (%) (EPHA5; EPHA5, 1 µM, ZLYTE, ATP Km app, listed as WEL028, 1 µM): 3% and -2%
- Inhibition at 1 µM (%) (STK22B (TSSK2); 1 µM, ZLYTE, ATP Km app, listed as WEL028, 1 µM): 17%
- inhibition at 1 µM (STK22B (TSSK2); [1]): 18%
- inhibition at 1 µM (STK22B (TSSK2); read-out: Inhibition at 1 µM (%), 1 µM, ZLYTE, ATP Km app): 18%

Source: article PMC7316778 (Nature Communications, 2020)
